Experimental data reported in patent US8691865B2 (AbbVie Inc., priority 2008, dated 2014).

Each compound was assayed against human Cav2.2 (Homo sapiens, UniProt Q00975) (assay: Assessment of calcium channel activity using FLIPR (Ca2+ influx in IMR32 cells)). Conditions: not given.
Format: cell-based
Procedure, shortened: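 Human neuroblastoma IMR32 cells were seeded at 1−1.2×10^5 cells/well and cultured 48 h at 37 °C before FLIPR calcium influx measurement. Percent inhibition at each concentration was calculated against the no-inhibitor signal, and IC50 came from sigmoidal dose-response fits.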

human Cav2.2, sequence (Q00975 whole entry): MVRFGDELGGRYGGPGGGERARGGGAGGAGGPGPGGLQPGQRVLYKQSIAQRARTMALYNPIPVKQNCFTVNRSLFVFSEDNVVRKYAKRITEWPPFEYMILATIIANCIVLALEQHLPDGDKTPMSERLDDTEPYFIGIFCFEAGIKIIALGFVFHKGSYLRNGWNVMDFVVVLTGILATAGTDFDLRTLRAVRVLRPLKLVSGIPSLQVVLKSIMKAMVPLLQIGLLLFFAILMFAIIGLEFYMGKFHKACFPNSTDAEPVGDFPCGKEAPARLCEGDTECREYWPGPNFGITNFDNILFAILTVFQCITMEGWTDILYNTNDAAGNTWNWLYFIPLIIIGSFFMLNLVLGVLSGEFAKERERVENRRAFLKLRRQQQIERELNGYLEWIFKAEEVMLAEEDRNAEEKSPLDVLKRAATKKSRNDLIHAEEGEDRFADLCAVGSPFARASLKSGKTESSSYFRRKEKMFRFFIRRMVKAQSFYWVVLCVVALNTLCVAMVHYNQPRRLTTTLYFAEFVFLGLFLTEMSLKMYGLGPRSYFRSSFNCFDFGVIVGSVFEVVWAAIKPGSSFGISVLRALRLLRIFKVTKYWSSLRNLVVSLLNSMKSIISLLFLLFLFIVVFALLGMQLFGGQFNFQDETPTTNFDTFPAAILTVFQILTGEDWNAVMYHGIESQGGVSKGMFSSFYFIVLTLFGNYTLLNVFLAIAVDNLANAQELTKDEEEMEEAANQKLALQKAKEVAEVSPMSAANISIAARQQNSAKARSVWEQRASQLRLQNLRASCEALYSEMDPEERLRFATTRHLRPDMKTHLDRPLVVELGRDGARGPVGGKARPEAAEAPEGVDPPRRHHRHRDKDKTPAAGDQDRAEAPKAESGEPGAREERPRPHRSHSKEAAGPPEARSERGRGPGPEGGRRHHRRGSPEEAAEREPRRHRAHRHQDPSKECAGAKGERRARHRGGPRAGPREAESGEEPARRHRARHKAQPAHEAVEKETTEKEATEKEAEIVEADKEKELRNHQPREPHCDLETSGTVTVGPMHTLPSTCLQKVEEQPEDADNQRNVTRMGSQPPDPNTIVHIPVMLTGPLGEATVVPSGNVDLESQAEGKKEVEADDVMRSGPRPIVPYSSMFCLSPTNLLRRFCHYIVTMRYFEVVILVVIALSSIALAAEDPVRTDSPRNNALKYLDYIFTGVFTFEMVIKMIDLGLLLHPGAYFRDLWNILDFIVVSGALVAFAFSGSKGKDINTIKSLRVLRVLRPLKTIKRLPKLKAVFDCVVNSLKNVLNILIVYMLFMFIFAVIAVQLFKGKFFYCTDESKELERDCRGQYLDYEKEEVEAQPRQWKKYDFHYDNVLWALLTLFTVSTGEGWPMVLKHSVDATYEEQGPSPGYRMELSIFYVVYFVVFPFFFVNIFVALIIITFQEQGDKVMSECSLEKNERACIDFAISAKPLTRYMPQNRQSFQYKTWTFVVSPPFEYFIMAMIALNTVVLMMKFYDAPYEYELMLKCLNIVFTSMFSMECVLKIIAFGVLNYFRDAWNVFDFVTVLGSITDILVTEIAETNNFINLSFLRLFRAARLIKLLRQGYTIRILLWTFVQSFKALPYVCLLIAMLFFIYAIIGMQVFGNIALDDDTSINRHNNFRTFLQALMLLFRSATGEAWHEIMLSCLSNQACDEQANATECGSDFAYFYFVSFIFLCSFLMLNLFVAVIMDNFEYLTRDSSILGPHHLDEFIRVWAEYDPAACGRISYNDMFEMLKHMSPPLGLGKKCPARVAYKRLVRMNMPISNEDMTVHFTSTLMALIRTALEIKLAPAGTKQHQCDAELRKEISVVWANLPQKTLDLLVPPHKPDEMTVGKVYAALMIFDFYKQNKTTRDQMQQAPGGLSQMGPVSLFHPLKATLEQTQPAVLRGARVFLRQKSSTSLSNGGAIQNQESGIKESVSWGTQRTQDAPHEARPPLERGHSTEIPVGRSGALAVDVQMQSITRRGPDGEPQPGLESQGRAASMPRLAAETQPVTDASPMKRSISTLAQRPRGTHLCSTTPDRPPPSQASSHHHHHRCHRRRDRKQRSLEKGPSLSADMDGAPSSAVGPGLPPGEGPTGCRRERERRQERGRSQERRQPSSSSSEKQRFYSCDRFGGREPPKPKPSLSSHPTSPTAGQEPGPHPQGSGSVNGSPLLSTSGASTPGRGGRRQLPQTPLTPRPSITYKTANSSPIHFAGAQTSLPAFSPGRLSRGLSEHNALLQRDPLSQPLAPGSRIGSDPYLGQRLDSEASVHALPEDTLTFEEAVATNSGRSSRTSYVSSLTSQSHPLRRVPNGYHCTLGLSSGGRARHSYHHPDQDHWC
human Cav2.2, sequence (P54289 25-956 partner limits assumed): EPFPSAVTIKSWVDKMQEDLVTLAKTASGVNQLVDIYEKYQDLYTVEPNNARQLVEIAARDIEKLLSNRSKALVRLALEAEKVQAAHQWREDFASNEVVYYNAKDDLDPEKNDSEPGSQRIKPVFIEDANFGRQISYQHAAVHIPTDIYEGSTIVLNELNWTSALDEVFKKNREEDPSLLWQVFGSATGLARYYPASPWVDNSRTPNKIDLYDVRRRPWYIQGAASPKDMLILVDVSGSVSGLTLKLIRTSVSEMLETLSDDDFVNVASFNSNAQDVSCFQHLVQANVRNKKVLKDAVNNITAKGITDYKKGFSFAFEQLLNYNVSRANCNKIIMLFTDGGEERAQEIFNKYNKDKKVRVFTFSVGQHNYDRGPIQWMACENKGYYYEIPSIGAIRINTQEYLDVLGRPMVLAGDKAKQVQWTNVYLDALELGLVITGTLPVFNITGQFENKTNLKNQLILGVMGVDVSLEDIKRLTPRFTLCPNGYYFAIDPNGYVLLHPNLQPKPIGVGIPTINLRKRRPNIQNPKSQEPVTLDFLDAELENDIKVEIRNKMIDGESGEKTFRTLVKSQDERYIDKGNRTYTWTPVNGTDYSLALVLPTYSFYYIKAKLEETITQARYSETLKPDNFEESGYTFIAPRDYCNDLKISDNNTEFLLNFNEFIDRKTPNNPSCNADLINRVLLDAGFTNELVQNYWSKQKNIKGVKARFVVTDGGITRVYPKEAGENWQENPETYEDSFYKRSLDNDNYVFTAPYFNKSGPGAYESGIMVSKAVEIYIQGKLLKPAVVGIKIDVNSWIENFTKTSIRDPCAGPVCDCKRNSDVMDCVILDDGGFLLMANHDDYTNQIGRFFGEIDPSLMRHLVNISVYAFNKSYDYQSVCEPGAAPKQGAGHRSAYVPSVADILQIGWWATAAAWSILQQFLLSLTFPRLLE
human Cav2.2, sequence (P54289 957-1103 partner limits assumed): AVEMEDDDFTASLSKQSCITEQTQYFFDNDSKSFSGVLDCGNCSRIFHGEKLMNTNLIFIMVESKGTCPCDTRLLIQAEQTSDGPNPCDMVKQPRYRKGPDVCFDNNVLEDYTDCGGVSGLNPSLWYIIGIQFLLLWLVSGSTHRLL
human Cav2.2, sequence (P54284 whole entry partner): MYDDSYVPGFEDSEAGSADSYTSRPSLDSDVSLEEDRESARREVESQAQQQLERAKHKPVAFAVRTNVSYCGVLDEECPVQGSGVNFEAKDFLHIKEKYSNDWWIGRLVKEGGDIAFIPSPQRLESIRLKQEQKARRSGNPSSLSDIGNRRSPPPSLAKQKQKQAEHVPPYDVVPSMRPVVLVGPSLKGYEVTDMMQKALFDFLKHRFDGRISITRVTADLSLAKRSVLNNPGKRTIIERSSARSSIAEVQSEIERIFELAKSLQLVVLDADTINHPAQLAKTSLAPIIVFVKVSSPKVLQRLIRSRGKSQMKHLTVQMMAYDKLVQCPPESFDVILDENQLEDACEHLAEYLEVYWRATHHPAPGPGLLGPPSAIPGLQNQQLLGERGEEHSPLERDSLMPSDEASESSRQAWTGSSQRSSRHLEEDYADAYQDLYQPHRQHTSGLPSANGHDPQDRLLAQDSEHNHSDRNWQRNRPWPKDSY

Row | IC50 | Compound
1 | 0.92 µM | CN[C@@H](CC(C)C)C(=O)N[C@H]1CC[C@@H]2CN(c3cccc(C(F)(F)F)c3F)C[C@@H]21 [Example 635, N-{(3aR,4S,6aS)-2-[2-fluoro-3-(trifluoromethyl)phenyl]octahydrocyclopenta[c]pyrrol-4-yl}-N^2-methyl-L-leucinamide]
2 | 7.83 µM | CCC[C@H](N)C(=O)N[C@H]1CC[C@@H]2CN(S(=O)(=O)c3ccc(C(F)(F)F)cc3)C[C@@H]21 [Example 422, N^1-((3aR,4S,6aS)-2-{[4-(trifluoromethyl)phenyl]sulfonyl}octahydrocyclopenta[c]pyrrol-4-yl)-L-norvalinamide]
3 | 2.31 µM | CC[C@H](C)[C@H](NC)C(=O)N[C@H]1CC[C@@H]2CN(S(=O)(=O)c3ccc(C(F)(F)F)cc3)C[C@@H]21 [Example 411, N^2-methyl-N^1-((3aR,4S,6aS)-2-{[4-(trifluoromethyl)phenyl]sulfonyl}octahydrocyclopenta[c]pyrrol-4-yl)-L-isoleucinamide]

Continued, compound first:

Row | Compound | IC50
4 | CN[C@@H](CC(C)C)C(=O)N[C@H]1CC[C@H]2CN(Cc3ccccc3)C[C@H]21 [Example 360, N^1-[(3aS,4S,6aR)-2-benzyloctahydrocyclopenta[c]pyrrol-4-yl]-N^2-methyl-L-leucinamide] | > 30 µM
5 | O=C(N[C@H]1CC[C@H]2CN(Cc3cccc(C(F)(F)F)c3)C[C@H]21)C(C1CCCCC1)C1CCCCC1 (relative stereo) [Example 124, 2,2-dicyclohexyl-N-{(3aS*,4S*,6aR*)-2-[3-(trifluoromethyl)benzyl]octahydrocyclopenta[c]pyrrol-4-yl}acetamide] | 1.07 µM
6 | Cc1c[nH]c(CN[C@H]2CC[C@@H]3CN(c4cccc(C(F)(F)F)n4)C[C@@H]32)n1 [Example 670, (3aR,4S,6aS)-N-[(4-methyl-1H-imidazol-2-yl)methyl]-2-[6-(trifluoromethyl)pyridin-2-yl]octahydrocyclopenta[c]pyrrol-4-amine] | 1.17 µM
7 | O=C(N[C@@H]1CC[C@@H]2CN(Cc3ccccc3)C[C@@H]21)C(c1ccccc1)C1CCCCC1 (relative stereo) [Example 3, N-[(3aR*,4R*,6aS*)-2-benzyloctahydrocyclopenta[c]pyrrol-4-yl]-2-cyclohexyl-2-phenylacetamide] | 1.06 µM
8 | CC(C)C[C@@H](C(=O)N[C@@H]1CC[C@H]2CN(Cc3ccccc3)C[C@H]21)N1CCOCC1 [Example 249, (2S)-N-[(3aS,4R,6aR)-2-benzyloctahydrocyclopenta[c]pyrrol-4-yl]-4-methyl-2-morpholin-4-ylpentanamide] | > 30 µM
9 | O=C(CC(O)C(F)(F)F)N[C@H]1CC[C@@H]2CN(c3cccc(C(F)(F)F)n3)C[C@@H]21 (stereo partly drawn) [Example 586, 4,4,4-trifluoro-3-hydroxy-N-{(3aR,4S,6aS)-2-[6-(trifluoromethyl)pyridin-2-yl]octahydrocyclopenta[c]pyrrol-4-yl}butanamide] | 2.56 µM
10 | CN[C@@H](CC(C)C)C(=O)N[C@H]1CC[C@@H]2CN(c3ccc(OC(F)(F)F)cc3F)C[C@@H]21 [Example 774, N-{(3aR,4S,6aS)-2-[2-fluoro-4-(trifluoromethoxy)phenyl]octahydrocyclopenta[c]pyrrol-4-yl}-N^2-methyl-L-leucinamide] | 1.15 µM
11 | O=C(N[C@H]1CC[C@@H]2CN(c3ccnc(C(F)(F)F)c3)C[C@@H]21)[C@@H]1C[C@@H](F)CN1 [Example 638, (4R)-4-fluoro-N-{(3aR,4S,6aS)-2-[2-(trifluoromethyl)pyridin-4-yl]octahydrocyclopenta[c]pyrrol-4-yl}-L-prolinamide] | > 30 µM
12 | CN[C@@H](CC(C)C)C(=O)N[C@H]1CC[C@@H]2CN(c3cccc(SC(F)(F)F)c3)C[C@@H]21 [Example 712, N^2-methyl-N-[(3aR,4S,6aS)-2-{3-[(trifluoromethyl)thio]phenyl]octahydrocyclopenta[c]pyrrol-4-yl}-L-leucinamide] | 1.01 µM
13 | C[C@H](C(=O)N[C@H]1CC[C@H]2CN(Cc3ccccc3)C[C@H]21)c1cccc(C(=O)c2ccccc2)c1 (relative stereo) [Example 12, (2S)-2-(3-benzoylphenyl)-N-[(3aS*,4S*,6aR*)-2-benzyloctahydrocyclopenta[c]pyrrol-4-yl]propanamide] | 1.22 µM

Same assay, conditions: read-out: IC50 (μM) or percent inhibition (* indicates 3 minute incubation, otherwise 60 minute); IC50; 60 minute pre-incubation with compound; IMR32 cells, 80 mM KCl depolarization

Row | IC50 | Compound
14 | 3.7 µM | CC(C)N[C@H]1CC[C@@H]2CN(S(=O)(=O)c3ccc(C(F)(F)F)cc3Cl)C[C@@H]21 [Example 284, (3aR,4S,6aS)-2-{[2-chloro-4-(trifluoromethyl)phenyl]sulfonyl}-N-isopropyloctahydrocyclopenta[c]pyrrol-4-amine]
15 | 4.55 µM | CC(C)C[C@@H](C(=O)N[C@H]1CC[C@H]2CN(Cc3cccc(C(F)(F)F)c3)C[C@H]21)N(C)C [Example 509, N^2,N^2-dimethyl-N^1-{(3aS,4S,6aR)-2-[3-(trifluoromethyl)benzyl]octahydrocyclopenta[c]pyrrol-4-yl}-L-leucinamide]
16 | 1.41 µM | CN[C@@H](CC(C)C)C(=O)N[C@@H]1CC[C@H]2CN(S(=O)(=O)c3ccc(C(F)(F)F)cc3)C[C@H]21 [Example 183, N^2-methyl-N^1-((3aS,4R,6aR)-2-{[4-(trifluoromethyl)phenyl]sulfonyl}octahydrocyclopenta[c]pyrrol-4-yl)-L-leucinamide]
17 | 2.98 µM | O=S(=O)(c1ccc(C(F)(F)F)cc1Cl)N1C[C@H]2CC[C@H](Nc3ccc(C(F)(F)F)cn3)[C@H]2C1 [Example 295, (3aR,4S,6aS)-2-{[2-chloro-4-(trifluoromethyl)phenyl]sulfonyl}-N-[5-(trifluoromethyl)pyridin-2-yl]octahydrocyclopenta[c]pyrrol-4-amine]
18 | 1.45 µM | O=C(N[C@H]1CC[C@@H]2CN(S(=O)(=O)c3cccc(C(F)(F)F)c3)C[C@@H]21)[C@@H]1Cc2ccccc2CN1 [Example 391, (3S)-N-((3aR,4S,6aS)-2-{[3-(trifluoromethyl)phenyl]sulfonyl}octahydrocyclopenta[c]pyrrol-4-yl)-1,2,3,4-tetrahydroisoquinoline-3-carboxamide]
19 | 9.71 µM | CN[C@@H](CC(C)C)C(=O)N[C@H]1CC[C@@H]2CN(Cc3ccc(C(F)(F)F)cc3)C[C@@H]21 [Example 380, N^2-methyl-N^1-{(3aR,4S,6aS)-2-[4-(trifluoromethyl)benzyl]octahydrocyclopenta[c]pyrrol-4-yl}-L-leucinamide]
20 | 14.4 µM | CCC[C@H](N)C(=O)N[C@H]1CC[C@@H]2CN(Cc3ccc(C(F)(F)F)cc3)C[C@@H]21 [Example 382, N^1-{(3aR,4S,6aS)-2-[4-(trifluoromethyl)benzyl]octahydrocyclopenta[c]pyrrol-4-yl}-L-norvalinamide]

The remaining lines, values behind:

Row | Compound | IC50
21 | O=S(=O)(N[C@@H]1CC[C@H]2CN(CCCCCC(c3ccc(F)cc3)c3ccc(F)cc3)C[C@H]21)c1cccc(C(F)(F)F)c1 [Example 191, N-{(3aS,4R,6aR)-2-[6,6-bis(4-fluorophenyl)hexyl]octahydrocyclopenta[c]pyrrol-4-yl}-3-(trifluoromethyl)benzenesulfonamide] | 0.51 µM
22 | CC(C)C[C@@H](C(=O)N[C@@H]1CC[C@H]2CN(Cc3ccccc3)C[C@H]21)N(C)S(C)(=O)=O [Example 168, N^1-[(3aS,4R,6aR)-2-benzyloctahydrocyclopenta[c]pyrrol-4-yl]-N^2-methyl-N^2-(methylsulfonyl)-L-leucinamide] | 12.9 µM
23 | CC(C)(C)OC(=O)N1CCCC[C@H]1C(=O)N[C@@H]1CC[C@H]2CN(Cc3ccccc3)C[C@H]21 [Example 231, tert-butyl(2S)-2-({[(3aS,4R,6aR)-2-benzyloctahydrocyclopenta[c]pyrrol-4-yl]amino}carbonyl)piperidine-1-carboxylate] | 6.13 µM
24 | O=C(CC(c1ccc(F)cc1)c1ccc(F)cc1)N[C@@H]1CC[C@H]2CN(Cc3cccc(C(F)(F)F)c3)C[C@H]21 (relative stereo) [Example 143, 3,3-bis(4-fluorophenyl)-N-{(3aS*,4R*,6aR*)-2-[3-(trifluoromethyl)benzyl]octahydrocyclopenta[c]pyrrol-4-yl}propanamide] | 0.61 µM
25 | CC(C)C(C(=O)N[C@@H]1CC[C@H]2CN(Cc3ccccc3)C[C@H]21)c1ccccc1 (stereo partly drawn) [Example 18, N-[(3aS,4R,6aR)-2-benzyloctahydrocyclopenta[c]pyrrol-4-yl]-3-methyl-2-phenylbutanamide] | 2.68 µM
26 | CC(C)C(C(=O)N(C)[C@@H]1CC[C@H]2CN(Cc3ccccc3)C[C@H]21)c1ccccc1 (relative stereo) [Example 215, N-[(3aS*,4R*,6aR*)-2-benzyloctahydrocyclopenta[c]pyrrol-4-yl]-N,3-dimethyl-2-phenylbutanamide] | 1.99 µM
27 | O=S(=O)(c1cccc(C(F)(F)F)c1)N(C1CC1)[C@H]1CC[C@H]2CN(CCCCCC(c3ccc(F)cc3)c3ccc(F)cc3)C[C@H]21 (relative stereo) [Example 202, N-{(3aS*,4S*,6aR*)-2-[6,6-bis(4-fluorophenyl)hexyl]octahydrocyclopenta[c]pyrrol-4-yl}-N-cyclopropyl-3-(trifluoromethyl)benzenesulfonamide] | 0.83 µM
28 | CN[C@@H](CC(C)C)C(=O)N[C@@H]1CC[C@H]2CN(Cc3ccccc3)C[C@H]21 [Example 165, N^1-[(3aS,4R,6aR)-2-benzyloctahydrocyclopenta[c]pyrrol-4-yl]-N^2-methyl-L-leucinamide] | > 30 µM
29 | O=C(CCCCC(c1ccc(F)cc1)c1ccc(F)cc1)N[C@@H]1CC[C@H]2CN(Cc3cccc(C(F)(F)F)c3)C[C@H]21 (relative stereo) [Example 140, 6,6-bis(4-fluorophenyl)-N-{(3aS*,4R*,6aR*)-2-[3-(trifluoromethyl)benzyl]octahydrocyclopenta[c]pyrrol-4-yl}hexanamide] | 0.62 µM
30 | O=C(N[C@H]1CC[C@H]2CN(CCCc3cccc(Cl)c3)C[C@H]21)C(C1CCCCC1)C1CCCCC1 [Example 67, N-{(3aS,4S,6aR)-2-[3-(3-chlorophenyl)propyl]octahydrocyclopenta[c]pyrrol-4-yl}-2,2-dicyclohexylacetamide] | 1.32 µM
